Experimental data reported in US10238738B2, “Methods of modulating immune system responses” (priority 2014, dated 2019).

Key:
[1] = system: primary human macrophages, neutrophils, and immortalized epithelial cells; test: Cytokine production in primary human cells (ELISA); type: cell-based
Protocol: (§1) Relative expression was calculated using the 2^−ΔΔCT method following normalization of target gene abundance to GAPDH. Quantitative measurements of cytokines were performed using ELISA kits form R&D Systems (KC, IL-23, IFN-β) or BD Biosciences (IL-1β, IL-8, IL-6, IL-12p70, TNF-α). Nuclear extracts were prepared from Jurkat T cells and NF-κB subunit binding was determined using the TransAM® Transcription Factor ELISA (Active Motif). Microarray
Whole blood was taken by venipuncture from human volunteers. Peripheral blood mononuclear cells (PBMCs) were isolated using Ficoll-Paque (GE). PBMCs (2×10^6 cells/ml) were incubated for one hour at 37° C. to allow monocytes to adhere. Following removal of non-adherent cells, monocytes were re-suspended and incubated for 7 days in RPMI 1640, 10% FBS, 1% glutamax, 1% penicillin streptomycin, containing 100 ng/ml recombinant human Granulocyte macrophage-colony stimulating factor (GM-CSF) (BioLegend). For infections, cells were detached using accutase (Sigma) and seeded at 2×10^5 cells/well in 48 well plates without antibiotics. Human neutrophils were isolated from citrated whole blood taken from healthy volunteers by venipuncture using Ficoll-Paque (GE) as described previously (McCaw et al., 2003).

[2] = system: NF-κB dependent genes in Jurkat T cells; test: Microarray, qRT-PCR and NF-κB subunit ELISA in Jurkat T cells; type: cell-based, human; details: compared with flagellin or TNFα, FIG. 2b,c
Protocol: RNA was isolated using an RNeasy kit (Qiagen) per manufacturers' protocol. cDNA was synthesized using the iScript cDNA synthesis kit (Bio-Rad) and treated with TURBO DNase (Life Technologies). cDNA was amplified using SsoAdvanced SYBR Green (Bio-Rad) using a C1000 thermal cycler (Bio-Rad). Target genes were amplified using the following primers: […]
as §1
Two clonal populations of Jurkat cells were stimulated for 2 hr with purified HBP-containing supernatants, or supernatants from M. catarrhalis. RNA was extracted using RNeasy (Qiagen), labeled using Illumina TotalPrep RNA Amplification kit (Ambion) and analyzed on a human HT-12 v4.0 Beadchip (Illumina). Data normalization and analysis were provided as a service by the Bioinformatics Department of the University Health Network (UHN) Micro array Centre, Toronto, ON. Data was analyzed using Genespring v11.0.1. […]

[3] = system: NF-κB; test: NF-κB luciferase reporter assay in 293T cells; type: cell-based, human
Protocol: 293T were maintained in DMEM supplemented with 10% FBS, 1% glutamax, and 1% penicillin streptomycin. Jurkat 1G5 cells contain a stably-integrated LTR-luciferase reporter gene (Aguilar-Cordova et al., 1994), and were maintained in RPMI supplemented with 10% FBS and 1% glutamax. THP-1 cells were maintained in RPMI supplemented with 10% FBS and 1% glutamax and differentiated to macrophages with 50 ng/ml PMA for 48 hr, followed by a 48 hr rest period prior to stimulation. To measure LTR-driven luciferase, 1G5 cells were lysed and luminescence determined using the Luciferase Assay kit (Promega) according to manufacturer's instructions. Results are expressed as fold change compared to untreated. 293T cells were transfected in 96 well plates with 90 ng ELAM firefly luciferase reporter plasmid (Chow et al., 1999) and 10 ng pRL-TK Renilla plasmid using TransiT LTI (Mirus). 18 hours later cells were treated for 6 hours and luciferase activity determined using the Dual-Glo Luciferase Assay System (Promega). Results are expressed as fold increase relative to transfected, mock treated cells following normalization to Renilla luciferase. Digitonin permeabilization assays were done as described previously (Girardin et al., 2003) with the following modifications: 1G5 cells were stimulated with purified HBP supernatants, or 10 μg/ml flagellin (Invivogen) for 20 minutes at 4° C. in the absence or presence of 2 μg/ml digitonin (Sigma). […]
293T were maintained in DMEM supplemented with 10% FBS, 1% glutamax, and 1% penicillin streptomycin. […] To measure LTR-driven luciferase, 1G5 cells were lysed and luminescence determined using the Luciferase Assay kit (Promega) according to manufacturers instructions. Results are expressed as fold change compared to untreated. […] 18 hours later cells were treated for 6 hours and luciferase activity determined using the Dual-Glo Luciferase Assay System (Promega). Results are expressed as fold increase relative to transfected, mock treated cells following normalization to Renilla luciferase.

O=P(O)(O)OC[C@@H](O)[C@H]1OC(OP(=O)(O)O)[C@@H](O)[C@@H](O)[C@@H]1O (stereo partly drawn) [HBP, D-glycerol-D-manno-heptose-1,7-bisphosphate]
IL-8, IL-6 and TNFα production ([1]; 24 hr, FIG. 8a-c): induced IL-8, IL-6, and TNFα production
Th17 polarizing cytokines IL-6 and IL-23 ([1]; primary human macrophages): induced significant amounts
Kinetics of NF-κB activation and pro-inflammatory transcriptional response [2]: slower, and persisted longer
NF-κB activation after incubation of the product with phosphatase GmhB ([3]; FIG. 1e): decreased NF-κB activation
NF-κB activation ([3]; product of in vitro reaction of S7P with GmhA and HldA, FIG. 1d): potently stimulated NF-κB
